Consider nine molecules from paper PMC9370150, “UHPLC Enantiomer Resolution for the ɑ/β-Adrenoceptor Antagonist R/S-Carvedilol and Its Major Active Metabolites on Chiralpak IB N-5” (Molecules, 2022).

Read-outs that look alike come from different tables or passages of the source. A value given as a limit tells only on which side of the number the result lay.

The subject of one series is α1-adrenoreceptor. The conditions noted are these: cited from earlier work.
On the set-up of series [1]: method as in PMID 1980583. The conditions noted are these: therapeutic dose; cited from earlier work.
A further series relates to β-adrenoreceptor. The conditions noted are these: cited from earlier work.
Series [2] in a line: Enantiomer plasma concentrations in cardiovascular patients after oral 25 mg rac-CAR (UHPLC-UV on Chiralpak IB N-5). The conditions noted are these: for concentration at 0.5 h / concentration at 1 h / concentration at 2 h / concentration at 4 h / concentration at 9 h / concentration at 12 h: human, plasma, po, 25 mg.
Description: The developed method was applied to single plasma samples obtained from different patients after an oral dose administration of 25 mg rac-CAR under non-standardized conditions. Patients’ plasma was collected at different time intervals after drug administration and CAR and its metabolites were extracted according to the method in Section 4.7 after spiking with IS.
Blood samples obtained from patients were also collected in EDTA-containing tubes. Blood was kept cool and then centrifuged at 2000 g for 15 min. Following plasma separation, it was immediately transferred into clean polypropylene tubes. The samples were always kept at 2–8 °C while handling.
After collection, plasma was obtained and the samples stored frozen until analysis.
Where [3] appears, read: patient 3, sampling time 2.0 hr, oral 25 mg racemic CAR.
Where [4] appears, read: patient 4, sampling time 4.0 hr, oral 25 mg racemic CAR.
The mark [5] stands for this setting: patient 5, sampling time 9.0 hr, oral 25 mg racemic CAR.
The mark [6] stands for this setting: patient 6, sampling time 12.0 hr, oral 25 mg racemic CAR.
[7] abbreviates: single enantiomers, read-out: Kd, α1-antagonistic activity.
[8] abbreviates: single enantiomers, read-out: Kd, β-adrenoreceptor antagonistic property.

For `COc1ccccc1OCCNCC(O)COc1cccc2[nH]c3ccccc3c12` (centres unmarked) [CAR, Carvedilol], the α1-adrenoceptor-antagonism eudismic ratio entry with α1-adrenoreceptor (parent CAR) was “approximately 1”. For the same molecule, the Kd at α1-adrenoreceptor (racemate, read-out: apparent dissociation constant (Kd), α1-adrenoreceptor antagonist) is 0.9 nM. Moreover, in series [1], the “excreted unchanged into urine” value was 2% and the “fraction of dose metabolized” value was roughly 98%. Besides, in the series on β-adrenoreceptor (parent CAR), the β-adrenoceptor-antagonism eudismic ratio result was “approximately 100”. The Kd on β-adrenoreceptor (racemate, read-out: Kd, nonselective β-adrenoreceptor antagonist) was 11 nM. Further, the “plasma S/R ratios of CAR enantiomers” value in series [2] (analyzed patient samples after 25 mg CAR racemate) was roughly 1. In series [2], this molecule had a concentration at 0.5 h of 41 ng/mL and a concentration at 1 h of 98.4 ng/mL. In addition, the “Plasma concentration S/R” value in series [2] (patient 1, sampling time 0.5 hr, oral 25 mg racemic CAR) amounted to 0.98. Further, the “sum of the two enantiomers in plasma” value in series [2] (patients investigated, 25 mg CAR racemate) is recorded as no more than 100 ng/mL.
Regarding `COc1cc(O)ccc1OCCNC[C@@H](O)COc1cccc2[nH]c3ccccc3c12` [R-4′OHC], the “Plasma Concentration” value stood at 4.51 ng/mL in series [2] (setting [3]), 4.98 ng/mL in series [2] (setting [4]), 3.54 ng/mL in series [2] (setting [5]) and 1.96 ng/mL in series [2] (setting [6]).
Consider `COc1ccc(O)cc1OCCNC[C@@H](O)COc1cccc2[nH]c3ccccc3c12` [R-5′OHC], for which the “Plasma Concentration” value in series [2] (setting [3]) was 8.20 ng/mL; in series [2] (setting [4]) it was 9.47 ng/mL; in series [2] (setting [5]), 6.09 ng/mL; in series [2] (setting [6]) it was 3.78 ng/mL.
In the case of `COc1ccccc1OCCNC[C@@H](O)COc1cccc2[nH]c3ccccc3c12` [R-CAR], the results for the Kd at α1-adrenoreceptor (setting [7]) and at β-adrenoreceptor (setting [8]) were 16 nM and roughly 45 nM, respectively. Besides, the “β-blocking activity relative to the racemate” value with β-adrenoreceptor (share of the racemate's activity) was “approximately 1%”. The same molecule showed a concentration at 0.5 h in series [2] of 20.7 ng/mL. The molecule also returned a concentration at 1 h in series [2] of 48.4 ng/mL.
In the case of `Oc1ccccc1OCCNC[C@@H](O)COc1cccc2[nH]c3ccccc3c12` [R-DMC], the “Plasma Concentration” value in series [2] (patient 2, sampling time 1.0 hr, oral 25 mg racemic CAR) was 2.40 ng/mL; in series [2] (setting [3]) it was 6.06 ng/mL; in series [2] (setting [4]) it was 4.93 ng/mL; in series [2] (setting [5]), 2.82 ng/mL; in series [2] (setting [6]), 1.52 ng/mL.
Turning to `COc1cc(O)ccc1OCCNC[C@H](O)COc1cccc2[nH]c3ccccc3c12` [S-4′OHC], in series [2], the concentration at 2 h was 13.7 ng/mL, the concentration at 4 h was determined as 16.1 ng/mL, the concentration at 9 h was determined as 8.18 ng/mL and the concentration at 12 h came to 5.29 ng/mL.
The corresponding values for `COc1ccc(O)cc1OCCNC[C@H](O)COc1cccc2[nH]c3ccccc3c12` [S-5′OHC] are 11.5 ng/mL, 14.1 ng/mL, 8.09 ng/mL and 5.28 ng/mL.
Regarding `COc1ccccc1OCCNC[C@H](O)COc1cccc2[nH]c3ccccc3c12` [S-CAR, (-)-1-(9H-carbazol-4-yloxy)-3-[2-(2-methoxyphenoxy)ethylamino] propan-2-ol], the Kd at α1-adrenoreceptor (setting [7]) is 14 nM; at β-adrenoreceptor (setting [8]), 0.4 nM. In addition, the “β-adrenoreceptor potency relative to the racemic mixture” value in the series with β-adrenoreceptor (fold more potent than racemate) is given as “approximately two-fold”. In series [2], this molecule displayed a concentration at 0.5 h of 20.3 ng/mL. Besides, the concentration at 1 h in series [2] is 50 ng/mL.
In series [2], `Oc1ccccc1OCCNC[C@H](O)COc1cccc2[nH]c3ccccc3c12` [S-DMC] yielded a concentration at 1 h of 3.27 ng/mL, a concentration at 2 h of 9.92 ng/mL, a concentration at 4 h of 8.52 ng/mL and a concentration at 9 h of 5.02 ng/mL. In series [2], this molecule gave a concentration at 12 h of 2.73 ng/mL.
